Laboratory results reported in patent US11014911B2, “CDK2 inhibitors” (Pfizer Inc., priority 2019, dated 2021).

Key:
[1] = biological target: CDK2/Cyclin E1 full length (Homo sapiens (Human), UniProt P24941); assay: CDK2/Cyclin E1 full length mobility shift assay; format: biochemical
[2] = biological target: GSK3β (H350L) (Homo sapiens (Human), UniProt P49841); assay: biochemical; conditions: GSK3β Ki (nM)
GSK3β (H350L), sequence (P49841 whole entry, stated change not applied): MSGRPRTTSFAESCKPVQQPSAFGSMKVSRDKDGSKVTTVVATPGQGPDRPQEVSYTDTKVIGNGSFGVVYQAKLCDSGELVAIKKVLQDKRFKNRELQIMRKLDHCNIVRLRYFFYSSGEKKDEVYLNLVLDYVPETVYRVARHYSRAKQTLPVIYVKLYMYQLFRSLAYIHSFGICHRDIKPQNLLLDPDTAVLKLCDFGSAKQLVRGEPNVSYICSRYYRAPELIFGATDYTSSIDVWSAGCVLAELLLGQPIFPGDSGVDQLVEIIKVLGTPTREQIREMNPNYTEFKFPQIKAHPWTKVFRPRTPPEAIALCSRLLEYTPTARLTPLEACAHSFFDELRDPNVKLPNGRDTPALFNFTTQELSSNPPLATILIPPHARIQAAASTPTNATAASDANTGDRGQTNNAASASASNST
Procedure: The assay was initiated with the addition of ATP, following 15 minutes pre-incubation of enzyme and inhibitor at room temperature in the reaction mixture. The reaction was stopped after 30 minutes at room temperature by the addition of 50 μL of 80 mM EDTA.

Ki [1] [nM]	Ki [2] [nM]	Compound
0.34	32.9	Cc1c(CC(=O)Nc2cc([C@H]3CC[C@@H](OC(=O)NC(C)CC(F)(F)F)C3)[nH]n2)cnn1C (single isomer, unassigned) [Example 401]
0.15	12.8	Cc1cc(CC(=O)Nc2cc([C@H]3CC[C@@H](OC(=O)NC(C)CC(F)(F)F)C3)[nH]n2)on1 (single isomer, unassigned) [Example 72]
0.19	80.7	CC1(NC(=O)O[C@@H]2CC[C@H](c3cc(NC(=O)Cc4ccccc4)n[nH]3)C2)CCOC1 (single isomer, unassigned) [Example 124]
0.15	8.85	Cc1ncc(CC(=O)Nc2cc([C@H]3CC[C@@H](OC(=O)NC(C)CC(F)(F)F)C3)[nH]n2)s1 (single isomer, unassigned) [Example 80]
0.13	8.87	COc1ccc(CC(=O)Nc2cc([C@H]3CC[C@@H](OC(=O)NC4(C)CCOC4)C3)[nH]n2)cn1 (single isomer, unassigned) [Example 123]
0.67	> 47.6	COCc1cc(C(=O)Nc2cc([C@H]3CC[C@@H](OC(=O)NC4(C)CCOC4)C3)[nH]n2)n(C)n1 (single isomer, unassigned) [Example 487]
0.27	26.6	COc1ncc(CC(=O)Nc2cc([C@H]3CC[C@@H](OC(=O)NC4(C)CCOC4)C3)[nH]n2)s1 (single isomer, unassigned) [Example 126]
0.22	9.15	COc1cc(CC(=O)Nc2cc([C@H]3CC[C@@H](OC(=O)N4CCC4C)C3)[nH]n2)ccn1 (single isomer, unassigned) [Example 153]
0.54	16.5	Cc1ncc(CC(=O)Nc2cc([C@H]3CC[C@@H](OC(=O)NC(C)CC(F)(F)F)C3)[nH]n2)s1 (single isomer, unassigned) [Example 79]
0.15	5.93	C[C@H]1[C@H](C#N)CN1C(=O)O[C@@H]1CC[C@H](c2cc(NC(=O)Cc3ccccc3)n[nH]2)C1 (single isomer, unassigned) [Example 161]
1.25	11.3	O=C(Cc1cc(F)cc(F)c1)Nc1cc([C@@H]2CC[C@H](OC(=O)NCC3CCCOC3)C2)[nH]n1 (single isomer, unassigned) [Example 515]
0.26	9.59	Cc1ccc(CC(=O)Nc2cc([C@H]3CC[C@@H](OC(=O)NC(C)CC(F)(F)F)C3)[nH]n2)cn1 (single isomer, unassigned) [Example 75]
1.14	> 95.3	COCc1cc(C(=O)Nc2cc([C@H]3CC[C@@H](OC(=O)NC(C)CC(F)(F)F)C3)[nH]n2)n(C)n1 (single isomer, unassigned) [Example 9]
0.54	20.9	CCC1CCN1C(=O)O[C@@H]1CC[C@H](c2cc(NC(=O)Cc3cc(C)no3)n[nH]2)C1 (single isomer, unassigned) [Example 597]
0.17	17.9	CC(CC(F)(F)F)NC(=O)O[C@@H]1CC[C@H](c2cc(NC(=O)Cc3ccn(C)n3)n[nH]2)C1 (single isomer, unassigned) [Example 66]
0.14	18.7	CC(CC(F)(F)F)NC(=O)O[C@@H]1CC[C@H](c2cc(NC(=O)Cc3ccon3)n[nH]2)C1 (single isomer, unassigned) [Example 64]
0.15	3.89	COc1ccc(CC(=O)Nc2cc([C@H]3CC[C@@H](OC(=O)N4CCC4C)C3)[nH]n2)cn1 (single isomer, unassigned) [Example 151]
0.69	33.3	CC(CC(F)(F)F)NC(=O)O[C@@H]1CC[C@H](c2cc(NC(=O)Cc3cnco3)n[nH]2)C1 (single isomer, unassigned) [Example 83]
0.33	21.6	COc1cc(CC(=O)Nc2cc([C@H]3CC[C@@H](OC(=O)NC(C)CC(F)F)C3)[nH]n2)ccn1 (single isomer, unassigned) [Example 98]
0.1	12	CC(CC(F)(F)F)NC(=O)O[C@@H]1CC[C@H](c2cc(NC(=O)Cc3cnco3)n[nH]2)C1 (single isomer, unassigned) [Example 84]
0.09	34.9	CC1(NC(=O)O[C@@H]2CC[C@H](c3cc(NC(=O)Cc4cc(F)cc(F)c4)n[nH]3)C2)CCOC1 (single isomer, unassigned) [Example 120]
2.7	135	CCCNC(=O)O[C@H]1CC[C@@H](c2cc(NC(=O)C3COc4ccccc43)n[nH]2)C1 (single isomer, unassigned) [Example 25]
0.42	55.5	CC(CC(F)(F)F)NC(=O)O[C@@H]1CC[C@H](c2cc(NC(=O)c3ccnn3CCN(C)C)[nH]n2)C1 (single isomer, unassigned) [Example 410]
0.25	101	COCc1cc(C(=O)Nc2cc([C@H]3CC[C@@H](OC(=O)NC(C)CC(F)(F)F)C3)[nH]n2)n(C)n1 (single isomer, unassigned) [Example 10]
0.39	18	Cc1cnc(CC(=O)Nc2cc([C@H]3CC[C@@H](OC(=O)NC(C)CC(F)F)C3)[nH]n2)o1 (single isomer, unassigned) [Example 97]
0.78	16.4	CCC1CCN1C(=O)O[C@@H]1CC[C@H](c2cc(NC(=O)Cc3cc(C)no3)n[nH]2)C1 (single isomer, unassigned) [Example 598]
0.23	2.36	CC(CC(F)(F)F)N(C)C(=O)O[C@@H]1CC[C@H](c2cc(NC(=O)Cc3ccno3)n[nH]2)C1 (single isomer, unassigned) [Example 90]

Compound	Ki [1] [nM]	Ki [2] [nM]
CC1(NC(=O)O[C@@H]2CC[C@H](c3cc(NC(=O)Cc4cnc(C(F)(F)F)cn4)n[nH]3)C2)CCOC1 (single isomer, unassigned) [Example 493]	0.98	157
Cc1cnc(CC(=O)Nc2cc([C@H]3CC[C@@H](OC(=O)NC4(C)CCOC4)C3)[nH]n2)o1 (single isomer, unassigned) [Example 477]	1.04	59.2
CCC(NC(=O)O[C@@H]1CC[C@H](c2cc(NC(=O)Cc3ccnc(OC)c3)n[nH]2)C1)C(F)(F)F (single isomer, unassigned) [Example 406]	1.81	73.3
CCC(NC(=O)O[C@@H]1CC[C@H](c2cc(NC(=O)Cc3cc(C)no3)n[nH]2)C1)C(F)(F)F (single isomer, unassigned) [Example 397]	1.87	155
CC1(NC(=O)O[C@@H]2CC[C@H](c3cc(NC(=O)Cc4ccno4)n[nH]3)C2)CCOC1 (single isomer, unassigned) [Example 473]	0.36	66.2
CCC(NC(=O)O[C@@H]1CC[C@H](c2cc(NC(=O)Cc3ccc(C)nc3)n[nH]2)C1)C(F)(F)F (single isomer, unassigned) [Example 398]	0.65	44.1
CCC(CO)CNC(=O)O[C@@H]1CC[C@H](c2cc(NC(=O)Cc3cc(C)no3)n[nH]2)C1 (single isomer, unassigned) [Example 524]	1.69	10.9
COc1cc(CC(=O)Nc2cc([C@H]3CC[C@@H](OC(=O)N[C@@H](C)[C@H](C)F)C3)[nH]n2)ccn1 (single isomer, unassigned) [Example 385, (1R,3S)-3-(3-{[(2-methoxypyridin-4-yl)acetyl]amino}-1H-pyrazol-5-yl)cyclopentyl [(2S*,3S*)-3-fluorobutan-2-yl]carbamate]	0.52	25.9
Cc1ccc(CC(=O)Nc2cc([C@H]3CC[C@@H](OC(=O)NC(C)C(C)(F)F)C3)[nH]n2)cn1 (single isomer, unassigned) [Example 389]	0.83	18.3
CC(CC(F)F)NC(=O)O[C@@H]1CC[C@H](c2cc(NC(=O)Cc3cnn(C)c3)n[nH]2)C1 (single isomer, unassigned) [Example 386]	0.66	45.9
CCC(CO)CNC(=O)O[C@@H]1CC[C@H](c2cc(NC(=O)Cc3cnc(C)s3)n[nH]2)C1 (single isomer, unassigned) [Example 529]	0.73	3.92
CCC(CO)CNC(=O)O[C@@H]1CC[C@H](c2cc(NC(=O)Cc3cnc(C)s3)n[nH]2)C1 (single isomer, unassigned) [Example 528]	1.11	3.6
COCc1cc(C(=O)Nc2cc([C@H]3CC[C@@H](OC(=O)NC4(C)CC4)C3)[nH]n2)n(C)n1 [Example 8, (1R,3S)-3-[3-({[3-(methoxymethyl)-1-methyl-1H-pyrazol-5-yl]carbonyl}amino)-1H-pyrazol-5-yl]cyclopentyl (1-methylcyclopropyl)carbamate]	0.5	667
CCC(CO)CNC(=O)O[C@@H]1CC[C@H](c2cc(NC(=O)Cc3ccc(OC)nc3)n[nH]2)C1 (single isomer, unassigned) [Example 532]	0.89	2.97
CCC(CO)CNC(=O)O[C@@H]1CC[C@H](c2cc(NC(=O)Cc3cc(C)no3)n[nH]2)C1 (single isomer, unassigned) [Example 525]	1.24	7.01
COc1cnc(CC(=O)Nc2cc([C@H]3CC[C@@H](OC(=O)NC4(C)CC4)C3)[nH]n2)cn1 [Example 6, (1R,3S)-3-(3-{[(5-methoxypyrazin-2-yl)acetyl]amino}-1H-pyrazol-5-yl)cyclopentyl (1-methylcyclopropyl)carbamate]	0.38	32.3
CCC(CO)CNC(=O)O[C@@H]1CC[C@H](c2cc(NC(=O)Cc3ccnc(OC)c3)n[nH]2)C1 (single isomer, unassigned) [Example 535]	1.21	3.8
Cc1ncc(CC(=O)Nc2cc([C@H]3CC[C@@H](OC(=O)NC4(C)CCOC4)C3)[nH]n2)s1 (single isomer, unassigned) [Example 482]	0.55	36.2
CCC(NC(=O)O[C@@H]1CC[C@H](c2cc(NC(=O)Cc3cnc(C)s3)n[nH]2)C1)C(F)(F)F (single isomer, unassigned) [Example 404]	1.38	84.3
